Patent US20180360917A1, “SINCALIDE FORMULATIONS AND METHODS OF USE” (Apicore LLC, priority 2017, published 2018)

How the values were obtained:
[1] = Stability of Sincalide in 35 mM phosphate buffer over pH 3.0-9.1 (recovery by RP-HPLC); format: physicochemical
Experimental: Experiments were conducted to determine the effect of pH on the chemical stability of Sincalide. Chemical instability, or degradation, may be caused by, for example, oxidation, reduction, de-amidation, hydrolysis, imide formation, racemization, isomerization, and/or β-elimination. To examine the effect of pH on Sincalide in phosphate buffer solution, solutions of Sincalide (˜1.7, μg/mL) were prepared in 35 mM phosphate buffer and pH-adjusted with either dilute HCl or NaOH for final pH values ranging from 3.0-9.1. Using reverse-phase HPLC (RP-HPLC) with gradient elution and UV detection at 215 nm, Sincalide stability in solution was assessed by measuring the recovery of Sincalide at 0, 6, and 24 hours after pH adjustment.
A 24-hour study on the stability of Sincalide in phosphate buffer over the pH range of 3.0-9.1 was conducted. By measure of the percentage recovery, Sincalide was stable in 35 mM phosphate buffer solution at pH values ranging from 5.0-9.1 over a 24-hour period. At pH values <5.0, Sincalide degradation was evident even at the initial time point.

[2] = Oxidation of Sincalide methionine residues by trace metals with and without EDTA; format: physicochemical
Description: Excipient impurities and/or stopper extractables can introduce trace metals into pharmaceutical formulations. Embodiments of the Sincalide formulations disclosed herein contain stabilizerichelator to inhibit the oxidation of the two methionine residues present in Sincalide (Met 3 and Met 6). Preferred chelators include edetic acid (EDTA) and derivatives thereof, including salts. […] In particular, copper and manganese, in the absence of EDTA, have the greatest oxidative effect on the methionine residues of Sincalide.

gallbladder = conditions: typical, patient pretreated before hepatobiliary imaging; cited from earlier work

CSCC[C@H](NC(=O)[C@H](Cc1ccc(OS(=O)(=O)O)cc1)NC(=O)[C@@H](N)CC(=O)O)C(=O)NCC(=O)N[C@@H](Cc1c[nH]c2ccccc12)C(=O)N[C@@H](CCSC)C(=O)N[C@@H](CC(=O)O)C(=O)N[C@@H](Cc1ccccc1)C(N)=O [Sincalide, 1-De(5-oxo-L-glutamine-5-L-proline)-2-de-L-me-thioninecaerulein]
pH values at which Sincalide was stable, by percentage recovery ([1]; 35 mM phosphate buffer solution, over a 24-hour period, RP-HPLC UV 215 nm): 5.0-9.1
pH values at which Sincalide degradation was evident ([1]; 35 mM phosphate buffer, even at the initial time point): < 5.0
formation of Sincalide Met 3 and Met 6 mono sulfoxides ([2]; presence of EDTA): inhibitory effect
amounts of the degradants Sincalide Met 3 and Met 6 mono sulfoxides ([2]; presence of certain metals, absence of EDTA, copper and manganese greatest oxidative effect): increase
time to gallbladder contraction after injection (gallbladder): ≤ 15 min
